{"source": "patent US12496304B2", "about": "“Selective glucocorticoid receptor modifiers for treating impaired skin wound healing” (AKRIBES BIOMEDICAL GMBH, priority 2019, dated 2025)", "key": {"[1]": {"tested_on": "primary human dermal fibroblasts (HDF)", "assay": "Fibroblast proliferation assay (2D) in the presence of wound exudate", "type": "cell-based", "procedure": "Primary human dermal fibroblasts (HDF) were purchased from CELLnTEC, Bern. They were routinely grown in Dulbecco's modified Eagle's medium (DMEM) containing 10% FCS, 2 mM glutamine, and 100 U/ml penicillin/100 μg/ml streptomycin. Media, antibiotics, and glutamine were bought from Lonza. The cells were used at passage 5-15. Cells were trypsinized and seeded at 2500 cells/well in 30 μl into the inner wells of 384-well plates in the absence or presence of graded compound concentrations with or without different dilutions of sterile-filtered WE in medium. For control samples, 30 μl medium was added instead of specific stimuli. The outer wells were loaded with sterile water. The cells were incubated for 72 hours at 37° C.\nAt the end of the incubation period, supernatants were removed for the determination of IL-1β, and the cells were fixed with 4% paraformaldehyde (Morphisto) for 15 minutes at room temperature and washed 3 times with PBS. A control plate was fixed after the overnight adherence of the cells (day 1) to determine the starting cell number.\nTotal cellular protein was determined as a measure of cell number by staining the fixed cells with sulforhodamine B (SRB, Sigma). A 0.4% SRB solution in 1% acetic acid was added to the wells for 30 minutes. The wells were then washed with 1% acetic acid until the wash solution remained colorless. After drying, the dye was eluted with 10 mM Tris-HCl, pH8.5, and absorbance was measured either at 550 or 492 nm for lower and higher cell densities, respectively. The average absorbance of the sample representing the day 1 starting cell number was subtracted from the absorbance values of the WE-treated cells.\nAll experiments were carried out in triplicate for each sample and concentration, and means±standard deviation (SD) were used for the evaluation of the experiment. Results are expressed as percentage of control values for unstimulated cells."}, "[2]": {"target": "T1, glucocorticoid receptor (Homo sapiens, UniProt P04150)", "T1 sequence (P04150 1-777)": "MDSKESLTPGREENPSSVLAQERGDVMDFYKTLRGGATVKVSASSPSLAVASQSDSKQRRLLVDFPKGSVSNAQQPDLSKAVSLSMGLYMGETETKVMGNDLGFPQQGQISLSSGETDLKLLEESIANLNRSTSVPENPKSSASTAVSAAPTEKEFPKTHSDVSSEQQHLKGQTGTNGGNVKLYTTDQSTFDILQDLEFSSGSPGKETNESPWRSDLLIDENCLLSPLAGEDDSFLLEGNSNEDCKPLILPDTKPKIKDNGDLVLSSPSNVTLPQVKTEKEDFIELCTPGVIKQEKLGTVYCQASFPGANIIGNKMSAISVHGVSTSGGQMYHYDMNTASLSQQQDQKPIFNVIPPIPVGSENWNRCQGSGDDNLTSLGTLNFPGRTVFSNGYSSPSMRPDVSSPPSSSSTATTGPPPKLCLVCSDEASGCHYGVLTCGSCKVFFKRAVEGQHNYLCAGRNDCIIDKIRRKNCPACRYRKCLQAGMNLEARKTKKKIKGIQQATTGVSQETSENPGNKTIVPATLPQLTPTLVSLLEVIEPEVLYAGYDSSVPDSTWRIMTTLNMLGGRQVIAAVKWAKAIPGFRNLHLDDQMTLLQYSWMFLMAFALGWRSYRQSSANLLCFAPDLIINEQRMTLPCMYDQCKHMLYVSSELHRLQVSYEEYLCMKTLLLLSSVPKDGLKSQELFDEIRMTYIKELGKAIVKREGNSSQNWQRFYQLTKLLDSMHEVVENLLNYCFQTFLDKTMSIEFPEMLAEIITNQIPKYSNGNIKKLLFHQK", "details": "45 minutes at 37° C."}}, "note": "Like-named read-outs stand apart in the source and are kept apart here."}
{"smiles": "Cc1ccc2c(NC[C@](O)(CC(C)(C)c3cc(F)cc4c3OCC4)C(F)(F)F)cccc2n1", "note": "[Mapracorat]", "values": [{"measurement": "effect on fibroblast proliferation in the presence of >80 human wound exudates", "setting": "[1]; >80 human wound exudates from chronic wound patients", "value": "> 120", "unit": "%"}, {"measurement": "fibroblast proliferation (2D) with wound exudate", "setting": "[1]; WE-4 (FIG. 5), graded concentrations", "value": "dose-dependently reversed inhibition of wound exudate (WE)-induced fibroblast proliferation"}, {"measurement": "localization of the glucocorticoid receptor", "setting": "[2]; 0.1 nM", "value": "N/C"}, {"measurement": "localization of the glucocorticoid receptor", "setting": "[2]; 1 nM", "value": "N"}, {"measurement": "localization of the glucocorticoid receptor", "setting": "[2]; 100 nM", "value": "N"}, {"measurement": "localization of the glucocorticoid receptor", "setting": "[2]; 10 nm", "value": "N"}]}
